SMILES strings stand for the structures. Where two headings read alike, the source gives them in different places. Bounds are passed on as bounds.

One assay addresses Smurf-1 (Homo sapiens, UniProt Q9HCE7). As to the kind of experiment: biochemical. Format: biochemical. The source says:
(§1) To determine the HECT E3 ligase selectivity of the compounds, a panel of biochemical HECT E3 ligase autoubiquitinylation assays was employed (Smurf-1, Smurf-2, WWP1, WWP2, ITCH, Nedd4, Nedd4L and E6AP). The conjugation of ubiquitin to a protein substrate is a multistep process. In an initial ATP-requiring step, a thioester bond is formed between the carboxyl terminus of ubiquitin and an internal cystein residue of the ubiquitin-activating enzyme (E1). Activated ubiquitin is then transferred to a specific cystein residue of an ubiquitin-conjugating enzyme (E2). E2s donate ubiquitin to a HECT E3 ligase (E3) from which it is transferred to the substrate protein. HECT E3 ligases can auto-ubiquitinylate. This event is detected in the TR-FRET (Time-Resolved Fluorescence Resonance Energy Transfer) assay used in this panel. The reaction mix contains E1, E2, tagged-E3, biotin-conjugated ubiquitin, the compound and ATP in a suitable buffer and is incubated for 45 minutes to allow auto-ubiquitinylation of the E3 ligase. To measure the extent of ubiquitinylated E3 ligase by TR-FRET, the donor fluorophore Europium cryptate (Eu3+ cryptate), conjugated to streptavidin which subsequently binds to biotinylated ubiquitin, and the modified allophycocyanin XL665 (HTRF® primary acceptor fluorophore) coupled to a tag-specific antibody (HA, His or GST), which recognizes the respective E3 ligase fusion proteins, are added after the reaction is complete. When these two fluorophores are brought together by a biomolecular interaction (in this case ubiquitinylation of the E3 ligase), a portion of the energy captured by the Cryptate during excitation is released through fluorescence emission at 620 nm, while the remaining energy is transferred to XL665. This energy is then released by XL665 as specific fluorescence at 665 nm. Light at 665 nm is emitted only through FRET with Europium.
(§2) Test and reference compounds are prepared at 180×[final] in 90% DMSO, and diluted 1:3 in 90% DMSO.
(§3) For the biochemical assay panel, 50 nl of the test compounds, reference compounds and buffer/DMSO control are transferred to the respective wells of a 384-well white GREINER “SMALL VOLUME” PS plate. The assay panel is run at room temperature on a Biomek FX liquid handling workstation. To the assay plates containing 50 nl compound or control solutions in 90% DMSO, 4.5 ul of E3 ligase solution were added per well, followed by 4.5 ul of the pre-incubated E1/E2/Ub mix or the pre-diluted ubiquitin (LOW control). Plates are shaken vigorously after each addition. In this assay the compound concentrations range from 3 nM to 10 uM in an 8-point dose-response curve.
(§4) After an incubation time of 45 min in the dark, the plates are transferred into the Pherastar fluorescence reader to measure the TR-FRET signal.

In a further assay the target is Smurf-2 (Homo sapiens, UniProt Q9HAU4). As to the kind of experiment: HECT E3 ligase autoubiquitinylation TR-FRET assay, Smurf-2. Format: biochemical.
Excerpt: as §1, §2, §3, §4
Background: TR-FRET usually uses a lanthanide donor and a delayed reading to cut background.

The mark [1] stands for this setting: biochemical autoubiquitinylation TR-FRET, 45 min incubation, 8-point dose-response 3 nM to 10 uM.
Where [2] appears, read: biochemical autoubiquitinylation TR-FRET, 45 min incubation, 8-point dose-response 3 nM to 10 uM, read-out: Smurf-2/IC50.

Chain of Smurf-2 (Q9HAU4 whole entry, species assumed): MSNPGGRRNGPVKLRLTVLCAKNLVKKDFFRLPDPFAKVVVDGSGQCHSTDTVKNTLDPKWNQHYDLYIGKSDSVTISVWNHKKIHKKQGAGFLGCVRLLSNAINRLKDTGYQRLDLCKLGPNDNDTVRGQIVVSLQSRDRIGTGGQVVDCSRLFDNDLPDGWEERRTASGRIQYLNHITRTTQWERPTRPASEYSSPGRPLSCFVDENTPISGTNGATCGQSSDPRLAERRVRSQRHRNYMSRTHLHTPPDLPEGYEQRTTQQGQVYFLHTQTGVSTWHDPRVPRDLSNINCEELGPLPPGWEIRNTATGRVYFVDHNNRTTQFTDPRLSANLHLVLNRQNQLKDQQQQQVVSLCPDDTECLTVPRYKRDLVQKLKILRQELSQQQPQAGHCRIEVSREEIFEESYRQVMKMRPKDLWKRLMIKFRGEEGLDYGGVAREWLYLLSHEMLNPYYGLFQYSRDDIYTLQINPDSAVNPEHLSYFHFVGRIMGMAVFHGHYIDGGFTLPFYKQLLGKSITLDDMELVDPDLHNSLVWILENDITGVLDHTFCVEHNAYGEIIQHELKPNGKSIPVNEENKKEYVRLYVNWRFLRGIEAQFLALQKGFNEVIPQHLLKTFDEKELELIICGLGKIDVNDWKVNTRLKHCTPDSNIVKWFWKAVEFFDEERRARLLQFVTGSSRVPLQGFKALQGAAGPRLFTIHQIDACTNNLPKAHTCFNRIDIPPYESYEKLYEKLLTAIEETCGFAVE
Chain of Smurf-1 (Q9HCE7 whole entry): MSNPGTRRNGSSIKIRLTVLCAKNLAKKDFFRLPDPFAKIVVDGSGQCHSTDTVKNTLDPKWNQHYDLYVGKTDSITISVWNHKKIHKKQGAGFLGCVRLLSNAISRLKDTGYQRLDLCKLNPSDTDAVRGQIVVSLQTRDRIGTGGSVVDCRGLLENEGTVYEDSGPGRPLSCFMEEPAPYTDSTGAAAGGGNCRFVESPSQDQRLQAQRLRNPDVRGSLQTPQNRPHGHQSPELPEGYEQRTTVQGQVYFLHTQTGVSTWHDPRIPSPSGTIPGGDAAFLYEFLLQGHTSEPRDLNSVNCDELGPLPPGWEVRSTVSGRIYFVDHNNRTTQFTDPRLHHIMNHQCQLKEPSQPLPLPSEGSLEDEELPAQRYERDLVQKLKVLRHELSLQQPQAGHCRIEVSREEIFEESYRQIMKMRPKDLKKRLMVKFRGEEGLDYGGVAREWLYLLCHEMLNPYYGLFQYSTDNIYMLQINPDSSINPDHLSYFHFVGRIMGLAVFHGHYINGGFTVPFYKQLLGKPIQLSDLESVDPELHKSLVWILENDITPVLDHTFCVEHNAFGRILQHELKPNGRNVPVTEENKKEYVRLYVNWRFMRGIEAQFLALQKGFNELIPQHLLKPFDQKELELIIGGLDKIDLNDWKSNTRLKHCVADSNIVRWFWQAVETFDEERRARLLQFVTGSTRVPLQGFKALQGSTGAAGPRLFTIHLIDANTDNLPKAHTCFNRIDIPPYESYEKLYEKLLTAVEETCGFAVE

Consider `Cc1c(NC(=O)c2noc3c2CCCc2cc(OC(F)(F)F)ccc2-3)c(=O)n(-c2ccccc2)n1C` [Example 39, N-(1,5-dimethyl-3-oxo-2-phenyl-2,3-dihydro-1H-pyrazol-4-yl)-8-(trifluoromethoxy)-5,6-dihydro-4H-benzo[3,4]cyclohepta[1,2-d]isoxazole-3-carboxamide], for which the figures for the IC50 against Smurf-1 (setting [1]) and on Smurf-2 (setting [2]) were 200 nM and 5550 nM, respectively.

As for `Cc1c(NC(=O)c2noc3c2CCSc2cc(OC(F)(F)F)ccc2-3)c(=O)n(-c2ccccc2F)n1C` [Example 46, N-(2-(2-fluorophenyl)-1,5-dimethyl-3-oxo-2,3-dihydro-1H-pyrazol-4-yl)-8-(trifluoromethoxy)-4,5-dihydrobenzo[6,7]thiepino[4,5-d]isoxazole-3-carboxamide], the IC50 is 31.5 nM at Smurf-1 (setting [1]) and above 10000 nM against Smurf-2. With `Cc1c(NC(=O)c2noc3c2CCc2cc(CC(C)C)ccc2-3)c(=O)n(-c2ccccc2)n1C` [Example 1, N-(1,5-Dimethyl-3-oxo-2-phenyl-2,3-dihydro-1H-pyrazol-4-yl)-7-isobutyl-4,5-dihydronaphtho[2,1-d]isoxazole-3-carboxamide], the IC50 is 240 nM at Smurf-1 (setting [1]) and 5600 nM at Smurf-2 (setting [2]). On the same counts, the results for `COc1ccc2c(c1)CCCCc1c(C(=O)Nc3c(C)n(C)n(C4CCCCC4)c3=O)noc1-2` [Example 5, N-(2-Cyclohexyl-1,5-dimethyl-3-oxo-2,3-dihydro-1H-pyrazol-4-yl)-9-methoxy-4,5,6,7-tetrahydrobenzo[3,4]cycloocta[1,2-d]isoxazole-3-carboxamide] are 91.8 nM and 8350 nM.

In the case of `COc1ccc2c(c1)CCCc1c(C(=O)Nc3c(C)n(C)n(Cc4ccc(F)cc4)c3=O)noc1-2` [Example 57, N-(2-(4-fluorobenzyl)-1,5-dimethyl-3-oxo-2,3-dihydro-1H-pyrazol-4-yl)-8-methoxy-5,6-dihydro-4H-benzo[3,4]cyclohepta[1,2-d]isoxazole-3-carboxamide], the IC50 on Smurf-1 (setting [1]) is 2700 nM. Turning to `Cc1ccc(-n2c(=O)c(NC(=O)c3noc4c3CCc3cc(OC(C)C)ccc3-4)c(C)n2C)cc1` [Example 11, N-(1,5-dimethyl-3-oxo-2-(p-tolyl)-2,3-dihydro-1H-pyrazol-4-yl)-7-isopropoxy-4,5-dihydronaphtho[2,1-d]isoxazole-3-carboxamide], the IC50 was 1420 nM against Smurf-1 (setting [1]) and above 10000 nM against Smurf-2. Regarding `COc1ccc(Cn2c(=O)c(NC(=O)c3noc4c3CCCc3cc(OC)ccc3-4)c(C)n2C)cc1` [Example 55, 8-methoxy-N-(2-(4-methoxybenzyl)-1,5-dimethyl-3-oxo-2,3-dihydro-1H-pyrazol-4-yl)-5,6-dihydro-4H-benzo[3,4]cyclohepta[1,2-d]isoxazole-3-carboxamide], the IC50 is 9900 nM on Smurf-1 (setting [1]) and above 10000 nM at Smurf-2. As to `Cc1c(NC(=O)c2noc3c2CCSc2cc(OC(F)(F)F)ccc2-3)c(=O)n(C2CCCCC2)n1C` [Example 4, N-(2-Cyclohexyl-1,5-dimethyl-3-oxo-2,3-dihydro-1H-pyrazol-4-yl)-8-(trifluoromethoxy)-4,5-dihydrobenzo[6,7]thiepino[4,5-d]isoxazole-3-carboxamide], the IC50 at Smurf-1 (setting [1]) was 2.6 nM; at Smurf-2 (setting [2]) it was 725 nM. Take `COc1ccc2c(c1)CCCc1c(C(=O)Nc3c(C)n(C)n(-c4cccc(Cl)c4)c3=O)noc1-2` [Example 28, N-(2-(3-chlorophenyl)-1,5-dimethyl-3-oxo-2,3-dihydro-1H-pyrazol-4-yl)-8-methoxy-5,6-dihydro-4H-benzo[3,4]cyclohepta[1,2-d]isoxazole-3-carboxamide]: the results for the IC50 on Smurf-1 (setting [1]) and against Smurf-2 were 660 nM and above 10000 nM, respectively. Regarding `Cc1c(NC(=O)c2noc3c2CCCc2cc(OC(F)(F)F)ccc2-3)c(=O)n(C2CCCCC2)n1C` [Example 45, N-(2-cyclohexyl-1,5-dimethyl-3-oxo-2,3-dihydro-1H-pyrazol-4-yl)-8-(trifluoromethoxy)-5,6-dihydro-4H-benzo[3,4]cyclohepta[1,2-d]isoxazole-3-carboxamide], the IC50 was determined as 2.2 nM at Smurf-1 (setting [1]) and 175 nM on Smurf-2 (setting [2]). For the molecule `Cc1c(NC(=O)c2noc3c2CCSc2ccccc2-3)c(=O)n(-c2ccccc2)n1C` [Example 47, N-(1,5-dimethyl-3-oxo-2-phenyl-2,3-dihydro-1H-pyrazol-4-yl)-4,5-dihydrobenzo[6,7]thiepino[4,5-d]isoxazole-3-carboxamide], the IC50 against Smurf-1 (setting [1]) is 1130 nM; against Smurf-2 it was above 10000 nM. `COc1ccc2c(c1)CCCc1c(C(=O)Nc3c(C)n(C)n(C4CCCCC4)c3=O)noc1-2` [Example 35, N-(2-cyclohexyl-1,5-dimethyl-3-oxo-2,3-dihydro-1H-pyrazol-4-yl)-8-methoxy-5,6-dihydro-4H-benzo[3,4]cyclohepta[1,2-d]isoxazole-3-carboxamide]: the IC50 against Smurf-1 (setting [1]) stood at 5.9 nM; at Smurf-2 (setting [2]), 1050 nM. `CCc1ccc2c(c1)CCCc1c(C(=O)Nc3c(C)n(C)n(-c4ccc(F)cc4)c3=O)noc1-2` [Example 13, 8-ethyl-N-(2-(4-fluorophenyl)-1,5-dimethyl-3-oxo-2,3-dihydro-1H-pyrazol-4-yl)-5,6-dihydro-4H-benzo[3,4]cyclohepta[1,2-d]isoxazole-3-carboxamide]: the IC50 at Smurf-1 (setting [1]) came out at 272 nM; on Smurf-2 (setting [2]) it was 7850 nM. Consider `Cc1c(NC(=O)c2noc3c2CCCc2cc(OC(F)(F)F)ccc2-3)c(=O)n(-c2ccccc2F)n1C` [Example 3, N-(2-(2-Fluorophenyl)-1,5-dimethyl-3-oxo-2,3-dihydro-1H-pyrazol-4-yl)-8-(trifluoromethoxy)-5,6-dihydro-4H-benzo[3,4]cyclohepta[1,2-d]isoxazole-3-carboxamide], for which the IC50 against Smurf-1 (setting [1]) stood at 17 nM; at Smurf-2 (setting [2]) it was 830 nM. On the same counts, the results for `COc1ccc2c(c1)CCCc1c(C(=O)Nc3c(C)n(C)n(-c4ccc(F)cc4)c3=O)noc1-2` [Example 2, N-(2-(4-Fluorophenyl)-1,5-dimethyl-3-oxo-2,3-dihydro-1H-pyrazol-4-yl)-8-methoxy-5,6-dihydro-4H-benzo[3,4]cyclohepta[1,2-d]isoxazole-3-carboxamide] are 410 nM and 8550 nM. With `Cc1c(NC(=O)c2noc3c2CCCc2cc(OC(F)(F)F)ccc2-3)c(=O)n(Cc2ccccc2F)n1C` [Example 43, N-(2-(2-fluorobenzyl)-1,5-dimethyl-3-oxo-2,3-dihydro-1H-pyrazol-4-yl)-8-(trifluoromethoxy)-5,6-dihydro-4H-benzo[3,4]cyclohepta[1,2-d]isoxazole-3-carboxamide], the IC50 against Smurf-1 (setting [1]) is 58 nM. As for `COc1ccc2c(c1)CCCc1c(C(=O)Nc3c(C(F)(F)F)n(C)n(-c4ccccc4)c3=O)noc1-2` [Example 38, 8-methoxy-N-(1-methyl-3-oxo-2-phenyl-5-(trifluoromethyl)-2,3-dihydro-1H-pyrazol-4-yl)-5,6-dihydro-4H-benzo[3,4]cyclohepta[1,2-d]isoxazole-3-carboxamide], the IC50 against Smurf-1 (setting [1]) is 865 nM; at Smurf-2 it was above 10000 nM. Turning to `COc1ccc2c(c1)OCCCc1c(C(=O)Nc3c(C)n(C)n(C4CCCCC4)c3=O)noc1-2` [Example 54, N-(2-cyclohexyl-1,5-dimethyl-3-oxo-2,3-dihydro-1H-pyrazol-4-yl)-9-methoxy-5,6-dihydro-4H-benzo[2,3]oxocino[5,4-d]isoxazole-3-carboxamide], the IC50 against Smurf-1 is 192 nM; against Smurf-2, above 10000 nM. Regarding `Cc1c(NC(=O)c2noc3c2CCCCc2ccccc2-3)c(=O)n(-c2ccccc2)n1C` [Example 51, N-(1,5-dimethyl-3-oxo-2-phenyl-2,3-dihydro-1H-pyrazol-4-yl)-4,5,6,7-tetrahydrobenzo[3,4]cycloocta[1,2-d]isoxazole-3-carboxamide], the IC50 against Smurf-1 (setting [1]) is 658 nM; against Smurf-2 it was above 10000 nM. Regarding `Cc1c(NC(=O)c2noc3c2CC2C(c4ccccc4-3)C2(Cl)Cl)c(=O)n(-c2ccccc2)n1C` (centres unmarked) [Example 50, 9,9-dichloro-N-(1,5-dimethyl-3-oxo-2-phenyl-2,3-dihydro-1H-pyrazol-4-yl)-8,8a,9,9a-tetrahydrobenzo[3,4]cyclopropa[5,6]cyclohepta[1,2-d]isoxazole-7-carboxamide], the IC50 is 462 nM on Smurf-1 (setting [1]) and above 10000 nM at Smurf-2.
